Results from patent publication EP3632468B1, “5-IODO-4-THIO-2'-DEOXYURIDINE FOR USE AS A RADIOSENSITIZER IN RADIOTHERAPY” (Uniwersytet Gdanski, priority 2018, dated 2020).

Columns and labels:
Assay type in all cases: cell-based
[1] = system: MCF-7 cells (human breast cancer cells); experiment: Cytometric analysis of phosphorylation of histone H2A.X (double strand break marker); conditions: 10^-4 M ISdU 48 h
Description: One of the damages caused by ISdU are double strand break of DNA, whose molecular marker is phosphorylation of histone H2A.X. To confirm the application of the compound in radiotherapy, the cytometric analysis of phosphorylation of histone H2A.X, molecular marker of double strand break of DNA was carried out.
The MCF-7 cells (human breast cancer cells) were grown up in RPMI medium supplemented with 10 % FBS (fetal bovine serum) and antibiotics (penicillin and streptomycin) at a concertation of 100 U · ml^-1. The cells were treated with ISdU at the concentration of 10^-4 M and incubated (37°C, 5% CO2) for 48 h. Upon this time, plate cultures were X-ray irradiated with doses of 1 Gy and 2 Gy, using of e.g. Cellrad X-ray cabinet, Faxitron X-ray Corporation, and incubated for 1 h in the same condition. Next, the cells were detached with solution of Accutase (Life Technologies, UK), fixed and permeabilized (fixation and permeabilization was performed by the manufacturer's protocol FlowCellect™ Histone H2A.X Phosphorylation Assay Kit, Merck). Prepared cells were analyzed by cytometric using of e.g. Guava easyCyte™, Merck. The experiment was performed in triplicated. The non-treated cells were a control.

[2] = system: human dermal fibroblasts - HDFa line; experiment: MTT cytotoxicity assay, HDFa; conditions: ISdU 10^-8 to 10^-4 M, 24 h and 48 h incubation, no irradiation
Description: (§1) Cytotoxic activity was determined using the MTT assay after incubation of MCF-7 (CLS, Eppelheim) or HDFa (Gibco Invitrogen) cells with ISdU. The MCF-7 cells were grown in RPMI supplemented with 10% FBS and antibiotics (streptomycin and penicillin) at a concentration of 100 U·mL^-1. The HDFa cells were grown in DMEM supplemented with 10% FBS and antibiotics (streptomycin and penicillin) at the same concentration. Cells at a density of 4·10^3 per well were seeded into a 96-well plate and incubated (37°C, 5% CO2) for 24 h. Then, the medium was freshly changed, and the cells were treated with ISdU at concentrations of 0 (control), 10^-4, 5·10^-5, 10^-5, 10^-6, 10^-7 and 10^-8 M. Cells were incubated with ISdU for 24 h and 48 h. After this time, the aqueous MTT salt solution at a concentration of 4 mg·mL^-1 was added to each well. After 4 h of incubation, the medium was removed and 200 µL of dimethylsulfoxide (DMSO) was added to dissolve the formazan crystals. The absorbance was measured at 570 nm (with 660 nm taken as the reference) on an EnSpire microplate reader (PerkinElmer). […] The results were analyzed with the use of GraphPad Prism software. The statistical evaluation of treated samples and untreated controls was calculated using one-way analysis of variance (ANOVA) followed by […] multiple comparison test. […]

[3] = system: human breast cancer cells - MCF-7 line; experiment: MTT cytotoxicity assay, MCF-7; conditions: MCF7, light or radiation study, 100 µM ISdU, 48 h incubation, no irradiation, read-out: MCF-7 cells viability compared to the control
Description: as §1

O=c1[nH]c(=S)c(I)cn1[C@H]1C[C@H](O)[C@@H](CO)O1 [ISdU, 5-iodo-4-thio-2'-deoxyuridine]
γH2A.X positive cells ([1]; 1 Gy X-ray, measured 1 h after irradiation (control 26.56 ± 1.14%)): 35.15 ± 1.48% | γH2A.X positive cells ([1]; 2 Gy X-ray, measured 1 h after irradiation (control 49.38 ± 3.8%)): 60.25 ± 2.98% | HDFa cell viability [2]: a statistically significant decrease in cell viability was not observed | viability at 100 µM [3]: 91 ± 3%
